From patent US7410975B2, “Small molecule toll-like receptor (TLR) antagonists” (Coley Pharmaceutical Group, Inc., priority 2003, dated 2008)
Counter-ions that a name gives are not always drawn.

These compounds were tested against T1, human TLR7 (hTLR7) (Homo sapiens, UniProt Q9NYK1) (assay: Antagonist screen, hTLR7-NFκB-293 cells, NF-κB-luciferase reporter, with EC50 of R848). Conditions: compound at 0.5, 5, 50 μg/ml; EC50 concentration of R848; 16 h; NF-κB-luciferase.
T1 construct: expressed in transfected cells
T1 sequence (Q9NYK1 27-1049): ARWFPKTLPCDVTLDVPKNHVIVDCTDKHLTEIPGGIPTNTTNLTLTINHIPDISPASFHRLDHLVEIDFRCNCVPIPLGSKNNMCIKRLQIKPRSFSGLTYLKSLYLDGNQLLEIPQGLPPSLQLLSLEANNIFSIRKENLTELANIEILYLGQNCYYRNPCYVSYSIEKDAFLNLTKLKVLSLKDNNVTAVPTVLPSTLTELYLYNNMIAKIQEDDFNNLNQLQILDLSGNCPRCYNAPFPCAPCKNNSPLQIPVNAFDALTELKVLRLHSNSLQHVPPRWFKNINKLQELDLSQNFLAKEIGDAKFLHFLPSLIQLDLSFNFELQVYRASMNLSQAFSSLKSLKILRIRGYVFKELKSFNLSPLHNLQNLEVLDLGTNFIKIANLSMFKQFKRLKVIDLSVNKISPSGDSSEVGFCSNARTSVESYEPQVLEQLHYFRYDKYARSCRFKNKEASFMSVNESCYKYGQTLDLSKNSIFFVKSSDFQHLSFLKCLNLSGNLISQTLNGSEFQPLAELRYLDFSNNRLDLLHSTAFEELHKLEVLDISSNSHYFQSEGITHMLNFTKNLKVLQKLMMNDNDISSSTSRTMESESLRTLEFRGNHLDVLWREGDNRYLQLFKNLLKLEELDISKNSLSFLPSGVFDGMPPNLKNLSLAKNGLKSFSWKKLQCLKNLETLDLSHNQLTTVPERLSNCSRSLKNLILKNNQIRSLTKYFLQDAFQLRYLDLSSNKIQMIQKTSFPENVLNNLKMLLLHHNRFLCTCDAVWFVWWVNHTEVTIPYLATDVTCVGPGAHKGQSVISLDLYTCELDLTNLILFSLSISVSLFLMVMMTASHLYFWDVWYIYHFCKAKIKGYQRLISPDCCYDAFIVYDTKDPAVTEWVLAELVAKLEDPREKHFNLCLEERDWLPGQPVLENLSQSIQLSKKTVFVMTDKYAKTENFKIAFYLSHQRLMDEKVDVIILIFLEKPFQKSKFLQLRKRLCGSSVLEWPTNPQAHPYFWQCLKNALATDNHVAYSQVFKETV
Assay type: cell-based
Description: The method is described in greater detail as follows. The cells for each individual cell clone (hTLR3-NFκB-293, hTLR7-NFκB-293, hTLR8-NFκB-293 and hTLR9-NFκB-293) were counted and seeded one day before the stimulation at 1.5×10^4 cells per well in 96-well cell culture plates. To become adherent the cells were incubated after seeding overnight at 37° C. in 5% CO2 humidified air.
The screen for each compound was performed at the same time for all of the receptors TLR3, TLR7, TLR8 and TLR9. Up to fifteen test compounds, each assayed in duplicate at each of three different final concentrations (0.5 μg/ml, 5 μg/ml, and 50 μg/ml), were used for 16 h cell stimulation on a single multiwell culture plate. A 4× final concentration master plate was created to prepare the different test compounds before they were added to the cells.
Controls were added as duplicates individually for each cell clone on the cell culture plate. Positive controls were used as follows (final concentrations): 50 μg/ml poly(I:C) for hTLR3-NFκB-293; 8 μM resiquimod (R848) for hTLR7-NFκB-293; 30 μM R848 for hTLR8-NFκB-293; and 2.5 μM CpG-ODN 2006 for hTLR9-NFκB-293. Media alone was used as negative control. After addition of controls and small molecules, the cell clones were additionally stimulated with the EC50 concentration of the appropriate receptor-specific ligand.
The mean value of wells H2 and H5 (each with cells and EC50 concentration of the appropriate receptor-specific ligand) divided by the mean of wells H3 and H6 (each with cells alone) yielded the baseline response (i.e., fold induction of luciferase activity) to EC50 concentration of the appropriate receptor-specific ligand.
After 16 h stimulation the supernatant was removed and the cells treated with lysis buffer and stored at −80° C. before measuring.
For each screen result a graphical documentation was performed.
The baseline result (measured with addition of the EC50 concentration of the receptor-specific ligand) for each cell culture plate was measured as described above. Antagonistic effects were measured by down regulation compared to the baseline. Antagonists were scored as follows: • 13: compounds for which there was clear down regulation at 0.5 μg/ml, 5 μg/ml, and 50 μg/ml; • 12: compounds for which there was clear down regulation at 5 μg/ml and 50 μg/ml; • 11: compounds for which there was clear down regulation only at 50 μg/ml; • —: compounds for which there was no clear down regulation even at 50 μg/ml. Agonists
Results were expressed as fold induction over baseline luciferase activity measured in the absence of R848. […] Additional screening was performed in like manner using additional small molecules selected from another library or specifically prepared for this purpose. Scoring is reported as above but as applied to TLR7.
In the case of `C=CCc1ccccc1OC1(c2ccccc2)OC(=O)c2ccccc21` (centres unmarked) [compound 957], the “hTLR7 (inhibitory effect, antagonist score)” value is reported as 11 (compounds for which there was clear down regulation only at 50 μg/ml).
In the case of `NC(=O)c1cccc2c1-c1ccccc1C2` [compound 1132], the “hTLR7 (inhibitory effect, antagonist score)” value is reported as 11 (compounds for which there was clear down regulation only at 50 μg/ml).
For `CN1CCC2C(C1)c1ccccc1N2Cc1ccccc1` (centres unmarked) [compound 455, Mebhydroline 1,5 naphtalenedisulfonate], the “hTLR7 (inhibitory effect, antagonist score)” value was “— (compounds for which there was no clear down regulation even at 50 μg/ml)”.
`CN(C)CCCN1c2ccccc2Sc2ccc(Cl)cc21.Cl` [compound 64, Chlorpromazinehydrochloride] was tested, and the “hTLR7 (inhibitory effect, antagonist score)” value was 11 (compounds for which there was clear down regulation only at 50 μg/ml).
For `CN1Cc2c(N)cccc2C(c2ccccc2)C1.O=C(O)/C=C\C(=O)O` (centres unmarked) [compound 108, Nomifensine maleate], the “hTLR7 (inhibitory effect, antagonist score)” value was “— (compounds for which there was no clear down regulation even at 50 μg/ml)”.
With `O=C(c1cccc2c1-c1ccccc1/C2=N\O)N1CCCCC1` [compound 1050] the “hTLR7 (inhibitory effect, antagonist score)” value was 12 (compounds for which there was clear down regulation at 5 μg/ml and 50 μg/ml).
For `CS(=O)(=O)O.OC(CCN1CCCCC1)(c1ccccc1)c1ccccc1` [compound 799, Pridinolmethanesulfonate salt], the “hTLR7 (inhibitory effect, antagonist score)” value was “— (compounds for which there was no clear down regulation even at 50 μg/ml)”.
With Flunarizinehydrochloride [compound 312] the “hTLR7 (inhibitory effect, antagonist score)” value was “— (compounds for which there was no clear down regulation even at 50 μg/ml)”.
`OCc1cc2c(cn1)[nH]c1ccccc12` [compound 878, 3-hydroxymethyl-beta-carboline] was tested, and the “hTLR7 (inhibitory effect, antagonist score)” value was “— (compounds for which there was no clear down regulation even at 50 μg/ml)”.
For `O=C(O)c1ccc(C2(c3ccc(C(=O)O)cc3)OC(=O)c3ccccc32)cc1` [compound 970], the “hTLR7 (inhibitory effect, antagonist score)” value was “— (compounds for which there was no clear down regulation even at 50 μg/ml)”.
In the case of `CNCCCN1c2ccccc2CCc2ccccc21.Cl` [compound 343, Desipraminehydrochloride], the “hTLR7 (inhibitory effect, antagonist score)” value is reported as 12 (compounds for which there was clear down regulation at 5 μg/ml and 50 μg/ml).
`CCN(CC)CCCN(CC(=O)C1c2ccc(Cl)cc2NC(=O)c2ccccc21)C(=O)c1ccccc1` (centres unmarked) [compound 1013] was tested, and the “hTLR7 (inhibitory effect, antagonist score)” value was “— (compounds for which there was no clear down regulation even at 50 μg/ml)”.
`Clc1ccccc1C(c1ccccc1)(c1ccccc1)n1ccnc1` [compound 267, Clotrimazole] was tested, and the “hTLR7 (inhibitory effect, antagonist score)” value was 12 (compounds for which there was clear down regulation at 5 μg/ml and 50 μg/ml).
In the case of `CN1CCN(C(c2ccccc2)c2ccccc2)CC1.Cl` [compound 510, Cyclizine hydrochloride], the “hTLR7 (inhibitory effect, antagonist score)” value is reported as “— (compounds for which there was no clear down regulation even at 50 μg/ml)”.
“Trifluoperazinedihydrochloride [compound 313]” was tested, and the “hTLR7 (inhibitory effect, antagonist score)” value was 11 (compounds for which there was clear down regulation only at 50 μg/ml).
With `Cc1cc(OC(=O)C2C3CCCCC32)c(C(C)C)cc1C1(c2cc(C(C)C)c(OC(=O)C3C4CCCCC43)cc2C)OC(=O)c2ccccc21` (centres unmarked) [compound 974] the “hTLR7 (inhibitory effect, antagonist score)” value was 11 (compounds for which there was clear down regulation only at 50 μg/ml).
For `CN(C)CCC=C1c2ccccc2CCc2ccccc21.Cl` [compound 74, Amitryptilinehydrochloride], the “hTLR7 (inhibitory effect, antagonist score)” value was 11 (compounds for which there was clear down regulation only at 50 μg/ml).
For `CCOCCOC(=O)c1cc([N+](=O)[O-])cc2c1-c1c(cc([N+](=O)[O-])cc1[N+](=O)[O-])C2=C(C#N)C#N` [compound 1241], the “hTLR7 (inhibitory effect, antagonist score)” value was “— (compounds for which there was no clear down regulation even at 50 μg/ml)”.
In the case of `O=C1c2ccccc2C(=O)c2c1ccc1c(=O)n(C3CCCCC3)[nH]c21` [compound 1015], the “hTLR7 (inhibitory effect, antagonist score)” value is reported as “— (compounds for which there was no clear down regulation even at 50 μg/ml)”.
`COC(=O)C1=CO[C@@H](C)[C@@H]2CN3CCc4c([nH]c5ccccc45)[C@@H]3C[C@H]12` [compound 593, Tetrahydroalstonine] was tested, and the “hTLR7 (inhibitory effect, antagonist score)” value was 11 (compounds for which there was clear down regulation only at 50 μg/ml).
`CCOC(=O)Oc1c(OC)cc(C(=O)O[C@@H]2C[C@@H]3CN4CCc5c([nH]c6cc(OC)ccc56)[C@H]4C[C@@H]3[C@H](C(=O)OC)[C@H]2OC)cc1OC` [compound 564, Syrosingopine] was tested, and the “hTLR7 (inhibitory effect, antagonist score)” value was 11 (compounds for which there was clear down regulation only at 50 μg/ml).
`CC[C@]12CCCN3CCc4c(n(c5ccccc45)C(=O)C1)[C@@H]32` [compound 607, Eburnamonine] was tested, and the “hTLR7 (inhibitory effect, antagonist score)” value was 11 (compounds for which there was clear down regulation only at 50 μg/ml).
For `Cc1nccc2c1[nH]c1ccccc12` [compound 620, Harmane hydrochloride], the “hTLR7 (inhibitory effect, antagonist score)” value was “— (compounds for which there was no clear down regulation even at 50 μg/ml)”.
For `COC(=O)c1cccc(C(O)(c2ccccc2)c2ccccc2)c1S(=O)(=O)C(C)(C)C` [compound 1187], the “hTLR7 (inhibitory effect, antagonist score)” value was 12 (compounds for which there was clear down regulation at 5 μg/ml and 50 μg/ml).
`CCCCOC(=O)c1cc([N+](=O)[O-])cc2c1-c1cc(CO)c([NH+]([O-])O)cc1C2=C(C#N)C#N` (centres unmarked) [compound 939] was tested, and the “hTLR7 (inhibitory effect, antagonist score)” value was 11 (compounds for which there was clear down regulation only at 50 μg/ml).
In the case of `COC(=O)c1cccc2c1-c1ccccc1/C2=N/O` [compound 904], the “hTLR7 (inhibitory effect, antagonist score)” value is reported as 12 (compounds for which there was clear down regulation at 5 μg/ml and 50 μg/ml).
With `O=C1Nc2ccccc2Oc2ccc([N+](=O)[O-])cc21` [compound 1352] the “hTLR7 (inhibitory effect, antagonist score)” value was 13 (compounds for which there was clear down regulation at 0.5 μg/ml, 5 μg/ml, and 50 μg/ml).
In the case of “Prochlorperazinedimaleate [compound 399]”, the “hTLR7 (inhibitory effect, antagonist score)” value is reported as 12 (compounds for which there was clear down regulation at 5 μg/ml and 50 μg/ml).
In the case of `COCCCNC(=O)c1ccc2c(c1N)C(=O)c1ccccc1C2=O` [compound 1337], the “hTLR7 (inhibitory effect, antagonist score)” value is reported as 11 (compounds for which there was clear down regulation only at 50 μg/ml).
`O=C(O)c1cccc2c1/C(=N/O)c1ccccc1-2` [compound 918] was tested, and the “hTLR7 (inhibitory effect, antagonist score)” value was 11 (compounds for which there was clear down regulation only at 50 μg/ml).
With `COC(=O)[C@H]1[C@H]2C[C@@H]3c4[nH]c5cc(OC)ccc5c4CCN3C[C@H]2C[C@@H](OC(=O)c2cc(OC)c(OC)c(OC)c2)[C@@H]1OC` [compound 875, Reserpine] the “hTLR7 (inhibitory effect, antagonist score)” value was “— (compounds for which there was no clear down regulation even at 50 μg/ml)”.
With `CC1CCN(C(=O)c2cccc3c2-c2ccccc2C3=O)CC1` [compound 1243] the “hTLR7 (inhibitory effect, antagonist score)” value was 11 (compounds for which there was clear down regulation only at 50 μg/ml).
